{
  "source": "patent US7442707B2",
  "about": "“CCI-779 polymorph and use thereof” (Wyeth, priority 2005, dated 2008)",
  "key": {"[1]": {"experiment": "Storage stability of crystalline Form II (conversion to Form I)", "assay_type": "physicochemical", "settings": "stored under room temperature and pressure", "text": "Stable Form II can be prepared as described and stored under room temperature and pressure for greater than 3 months without conversion to Form I."}, "[2]": {"experiment": "Powder flow characteristics from crystal morphology at bench scale", "assay_type": "physicochemical", "settings": "Form II plate-like morphology vs Form I needle-like"}},
  "data": [
    {"smiles": "COC1CC2CCC(C)C(O)(O2)C(=O)C(=O)N2CCCCC2C(=O)OC(C(C)CC2CCC(OC(=O)C(C)(CO)CO)C(OC)C2)CC(=O)C(C)/C=C(\\C)C(O)C(OC)C(=O)C(C)CC(C)/C=C/C=C/C=C/1C", "note": "(centres unmarked) [CCI-779 polymorph Form II, Rapamycin 42-ester with 3-hydroxy-2-(hydroxymethyl)-2-methylpropionic acid]", "values": [
      {"measurement": "storage time without conversion to Form I", "setting": "[1]", "result": "greater than 3 months"},
      {"measurement": "powder flow characteristics relative to Form I", "setting": "[2]", "result": "better powder flow characteristics than form I"}
    ]}
  ]
}
